US8247211B2, “Glycopeptide antibiotics” (American Cyanamid Company, priority 2001, dated 2012)
≈ marks a conversion by molar mass, not a printed value.

Tests used:
Assay in all cases: In vitro antibacterial evaluation: minimum inhibitory concentration (MIC), broth dilution method
Type in all cases: cell-based
[1] = test system: Streptococcus sp.; conditions: 18 hours at 35° C.
Procedure, shortened: (§1)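 Test strains, among them recent clinical isolates carrying methicillin, penicillin and/or vancomycin resistance, were inoculated at 5×10^5 CFU/mL. A broth dilution series spanning 64-0.06 μg/mL in Muller-Hinton II […] (NCCLS M7-A2) defined the MIC as the lowest growth-inhibiting concentration.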

[2] = test system: Staphylococcus sp.
Procedure, shortened: as §1

[3] = test system: Escherichia coli; conditions: Escherichia coli (GC 4560); 18 hours at 35° C.
Procedure, shortened: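 Using Muller-Hinton II […] and an inoculum of 5×10^5 CFU/mL, antibiotic dilutions from 64 down to 0.06 μg/mL were tested following NCCLS M7-A2. The MIC is the lowest concentration inhibiting growth, including in methicillin-, penicillin- or vancomycin-resistant clinical isolates.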

[4] = test system: Enterococcus sp.; conditions: 18 hours at 35° C.
Procedure, shortened: as §1

[5] = broth dilution, inoculum 5×10^5 CFU/mL

Structure (SMILES): CC(c1ccccc1)C1NC(=O)CNC(=O)C(CO)NC(=O)C(C(O)C2CNC(=N)N2C2OC(CO)C(O)C(O)C2O)NC(=O)C(C(O)C2CNC(=N)N2)NC(=O)C(Cc2ccc(OC3OC(CO)C(OC4OC5COC6(CCCCC6C)OC5C(O)C4O)C(O)C3O)cc2)NC1=O (stereo not drawn) [Example 204, Cyclo[glycyl-β-methylphenylalanyl-O-[4-O-[4,6-O-(2-methylcyclohexylidene)hexopyranosyl]hexopyranosyl]tyrosyl-3-(2-iminoimidazolidin-4-yl)seryl-3-(3-hexopyranosyl-2-iminoimidazolidin-4-yl)serylseryl]]
- MIC Streptococcus agalactiae (GC 4564) ([1]; Streptococcus agalactiae (GC 4564)): 1 µg/mL (≈ 0.72 µM)
- MIC Streptococcus pneumoniae (ATCC 6301) ([1]; Streptococcus pneumoniae (ATCC 6301)): 0.5 µg/mL (≈ 0.36 µM)
- MIC Streptococcus pneumoniae (GC 1894) ([1]; Streptococcus pneumoniae (GC 1894)): 0.25 µg/mL (≈ 0.18 µM)
- MIC Streptococcus pneumoniae (GC 4565) ([1]; Streptococcus pneumoniae (GC 4565)): 0.5 µg/mL (≈ 0.36 µM)
- MIC Streptococcus pyogenes (GC 4563) ([1]; Streptococcus pyogenes (GC 4563)): 0.5 µg/mL (≈ 0.36 µM)
- MIC Streptococcus agalactiae (GC 4564) [1, 5]: 1 µg/mL (≈ 0.72 µM)
- MIC Streptococcus pneumoniae (ATCC 6301) [1, 5]: 0.5 µg/mL (≈ 0.36 µM)
- MIC Streptococcus pneumoniae (GC 1894) [1, 5]: 0.25 µg/mL (≈ 0.18 µM)
- MIC Streptococcus pneumoniae (GC 4565) [1, 5]: 0.5 µg/mL (≈ 0.36 µM)
- MIC Streptococcus pyogenes (GC 4563) [1, 5]: 0.5 µg/mL (≈ 0.36 µM)
- MIC Staphylococcus aureus (ATCC 29213) ([2]; strain ATCC 29213): 4 µg/mL (≈ 2.88 µM)
- MIC Staphylococcus aureus (GC 1131) ([2]; strain GC 1131): 8 µg/mL (≈ 5.76 µM)
- MIC Staphylococcus aureus (GC 3051) ([2]; strain GC 3051): 4 µg/mL (≈ 2.88 µM)
- MIC Staphylococcus aureus (GC 3053) ([2]; strain GC 3053): 8 µg/mL (≈ 5.76 µM)
- MIC Staphylococcus aureus (GC 4541) ([2]; strain GC 4541): 4 µg/mL (≈ 2.88 µM)
- MIC Staphylococcus aureus (GC 4542) ([2]; strain GC 4542): 4 µg/mL (≈ 2.88 µM)
- MIC Staphylococcus aureus-SMITH (GC 4543) ([2]; strain GC 4543): 4 µg/mL (≈ 2.88 µM)
- MIC Staphylococcus aureus (GC 4544) ([2]; strain GC 4544): 8 µg/mL (≈ 5.76 µM)
- MIC Staphylococcus aureus (GC 4545) ([2]; strain GC 4545): 4 µg/mL (≈ 2.88 µM)
- MIC Staphylococcus haemolyticus (GC 4546) ([2]; strain GC 4546): 2 µg/mL (≈ 1.44 µM)
- MIC Coagulase Negative Staphylococcus (GC 4547) ([2]; strain GC 4547): 4 µg/mL (≈ 2.88 µM)
- MIC Coagulase Negative Staphylococcus (GC 4548) ([2]; strain GC 4548): 4 µg/mL (≈ 2.88 µM)
- MIC Coagulase Negative Staphylococcus (GC 4549) ([2]; strain GC 4549): 2 µg/mL (≈ 1.44 µM)
- MIC Coagulase Negative Staphylococcus (GC 4551) ([2]; strain GC 4551): 4 µg/mL (≈ 2.88 µM)
- MIC Escherichia coli (GC 4560) [3]: 4 µg/mL (≈ 2.88 µM)
- MIC Enterococcus avium (GC 4558) ([4]; Enterococcus avium (GC 4558)): 16 µg/mL (≈ 11.5 µM)
- MIC Enterococcus faecalis (ATCC 29212) ([4]; Enterococcus faecalis (ATCC 29212)): 16 µg/mL (≈ 11.5 µM)
- MIC Enterococcus faecalis (GC 2242) ([4]; Enterococcus faecalis (GC 2242)): 16 µg/mL (≈ 11.5 µM)
- MIC Enterococcus faecalis (GC 2691) ([4]; Enterococcus faecalis (GC 2691)): 16 µg/mL (≈ 11.5 µM)
- MIC Enterococcus faecalis (GC 3059) ([4]; Enterococcus faecalis (GC 3059)): 16 µg/mL (≈ 11.5 µM)
- MIC Enterococcus faecalis (GC 4552) ([4]; Enterococcus faecalis (GC 4552)): 16 µg/mL (≈ 11.5 µM)
- MIC Enterococcus faecalis (GC 4553) ([4]; Enterococcus faecalis (GC 4553)): 16 µg/mL (≈ 11.5 µM)
- MIC Enterococcus faecalis (GC 4554) ([4]; Enterococcus faecalis (GC 4554)): 16 µg/mL (≈ 11.5 µM)
- MIC Enterococcus faecalis (GC 6189) ([4]; Enterococcus faecalis (GC 6189)): 16 µg/mL (≈ 11.5 µM)
- MIC Enterococcus faecium (GC 2243) ([4]; Enterococcus faecium (GC 2243)): 16 µg/mL (≈ 11.5 µM)
- MIC Enterococcus faecium (GC 4556) ([4]; Enterococcus faecium (GC 4556)): 16 µg/mL (≈ 11.5 µM)
- MIC Enterococcus faecium (GC 4557) ([4]; Enterococcus faecium (GC 4557)): 8 µg/mL (≈ 5.76 µM)
- MIC Enterococcus avium (GC 4558) [4, 5]: 16 µg/mL (≈ 11.5 µM)
- MIC Enterococcus faecalis (ATCC 29212) [4, 5]: 16 µg/mL (≈ 11.5 µM)
- MIC Enterococcus faecalis (GC 2242) [4, 5]: 16 µg/mL (≈ 11.5 µM)
- MIC Enterococcus faecalis (GC 2691) [4, 5]: 16 µg/mL (≈ 11.5 µM)
- MIC Enterococcus faecalis (GC 3059) [4, 5]: 16 µg/mL (≈ 11.5 µM)
- MIC Enterococcus faecalis (GC 4552) [4, 5]: 16 µg/mL (≈ 11.5 µM)
- MIC Enterococcus faecalis (GC 4553) [4, 5]: 16 µg/mL (≈ 11.5 µM)
- MIC Enterococcus faecalis (GC 4554) [4, 5]: 16 µg/mL (≈ 11.5 µM)
- MIC Enterococcus faecalis (GC 6189) [4, 5]: 16 µg/mL (≈ 11.5 µM)
- MIC Enterococcus faecium (GC 2243) [4, 5]: 16 µg/mL (≈ 11.5 µM)
- MIC Enterococcus faecium (GC 4556) [4, 5]: 16 µg/mL (≈ 11.5 µM)
- MIC Enterococcus faecium (GC 4557) [4, 5]: 8 µg/mL (≈ 5.76 µM)
